{"source": "patent US20250034109A1", "about": "“SALTS, COCRYSTALS, PHARMACEUTICAL COMPOSITIONS THEREOF, AND METHODS OF TREATMENT INVOLVING THE SAME” (Servier Pharmaceuticals LLC, priority 2023, published 2025)", "key": {"[1]": {"tested_on": "mutant IDH2", "conditions": "biochemical and cellular assays; cited from earlier work"}, "[2]": {"tested_on": "mutant IDH1", "conditions": "biochemical and cellular assays; cited from earlier work"}, "[3]": {"assay": "Solubility of the drug substance (general statement)", "type": "physicochemical"}}}
{"compound": "C[C@@H](Nc1nc(N[C@H](C)C(F)(F)F)nc(-c2cccc(Cl)n2)n1)C(F)(F)F", "note": "[Compound 1, 6-(6-chloropyridin-2-yl)-N^2,N^4-bis((R)-1,1,1-trifluoropropan-2-yl)-1,3,5-triazine-2,4-diamine]", "values": [{"measurement": "inhibitor of mutant IDH2 protein", "setting": "[1]", "result": "inhibitor"}, {"measurement": "inhibitor of mutant IDH1 protein", "setting": "[2]", "result": "inhibitor"}, {"measurement": "solubility", "setting": "[3]", "result": "poorly soluble"}]}
